{"source": "ChEMBL document CHEMBL4190267", "about": "“Discovery of potent molecular chimera (CM358) to treat human metastatic melanoma” (Eur J Med Chem, 2017)", "key": {"WM 266-4 [1]": {"system": "WM 266-4", "assay": "(§1) Antitumor activity against human WM266.4 cells xenografted in athymic Foxn1 nu mouse assessed as tumor growth inhibition at 10 mg/kg, ip administered once daily for 7 days followed by resting period of 2 days repeated for 4 weeks starting from 5 days post tumor inoculation measured on day 19", "type": "functional, organism-based"}, "MDA-MB-231": {"system": "MDA-MB-231", "assay": "Growth inhibition of human MDA-MB-231 cells preincubated for 6 hrs followed compound washout measured after 24 hrs by XTT assay", "type": "functional"}, "WM 266-4 [2]": {"system": "WM 266-4", "assay": "Cell cycle arrest in human WM266.4 cells assessed as accumulation at S phase at 10 uM after 8 hrs by propidium iodide staining based flow cytometry (reference value: 27%)", "type": "functional"}, "WM 266-4 [3]": {"system": "WM 266-4", "assay": "as §1, with “increase in 50% survival of mouse” for “tumor growth inhibition”, “relative to control” for “measured on day 19”", "type": "functional"}, "WM 266-4 [4]": {"system": "WM 266-4", "assay": "Induction of apoptosis in human WM266.4 cells assessed as early apoptotic cells at 25 uM after 2 hrs by Annexin V-FITC/propidium iodide staining based flow cytometry (reference value: 2.64%)", "type": "functional"}, "Mus musculus [5]": {"system": "Mus musculus", "assay": "Toxicity in athymic Foxn1 nu mouse assessed as abnormal gross behavioral changes at 10 mg/kg, ip administered once daily for 3 days followed by resting period of 4 days repeated for 4 weeks", "type": "organism-based", "details": "in vivo"}, "WM 266-4 [6]": {"system": "WM 266-4", "assay": "Cell cycle arrest in human WM266.4 cells assessed as accumulation at G2 phase at 10 uM after 24 hrs by propidium iodide staining based flow cytometry (reference value: 11%)", "type": "functional"}, "WM 266-4 [7]": {"system": "WM 266-4", "assay": "Growth inhibition of human WM266.4 cells at 25 uM after 24 hrs by XTT assay", "type": "functional, cell-based"}, "WM 266-4 [8]": {"system": "WM 266-4", "assay": "Induction of apoptosis in human WM266.4 cells assessed as necrotic cells at 25 uM after 8 hrs by Annexin V-FITC/propidium iodide staining based flow cytometry (reference value: 1.22%)", "type": "functional"}, "WM 266-4 [9]": {"system": "WM 266-4", "assay": "(§2) Antitumor activity against human WM266.4 cells xenografted in athymic Foxn1 nu mouse assessed as tumor growth inhibition at 5 mg/kg, ip administered once daily for 7 days followed by resting period of 2 days repeated for 4 weeks starting from 5 days post tumor inoculation measured on day 21", "type": "functional, organism-based"}, "Mus musculus [10]": {"system": "Mus musculus", "assay": "Toxicity in athymic Foxn1 nu mouse assessed as abnormal physiological changes at 10 mg/kg, ip administered once daily for 3 days followed by resting period of 4 days repeated for 4 weeks", "type": "organism-based", "details": "in vivo"}, "WM 266-4 [11]": {"system": "WM 266-4", "assay": "Induction of necrosis in human WM266.4 cells at 5 to 25 uM after 16 hrs by Annexin V-FITC/propidium iodide staining based fluorescence microscopic method", "type": "functional, cell-based"}, "WM 266-4 [12]": {"system": "WM 266-4", "assay": "as §2, with “at 10” for “at 5”, “21 relative to control” for “21”", "type": "functional", "details": "WM 266-4, ip, read-out: TGI"}, "PC-3": {"system": "PC-3", "assay": "Growth inhibition of human PC3 cells preincubated for 6 hrs followed compound washout measured after 24 hrs by XTT assay", "type": "functional"}, "WM 266-4 [13]": {"system": "WM 266-4", "assay": "Induction of apoptosis in human WM266.4 cells assessed as early apoptotic cells at 10 uM after 2 hrs by Annexin V-FITC/propidium iodide staining based flow cytometry (reference value: 2.64%)", "type": "functional"}, "WM 266-4 [14]": {"system": "WM 266-4", "assay": "Induction of apoptosis in human WM266.4 cells assessed as early apoptotic cells at 25 uM after 8 hrs by Annexin V-FITC/propidium iodide staining based flow cytometry (reference value: 2.64%)", "type": "functional"}, "WM 266-4 [15]": {"system": "WM 266-4", "assay": "Induction of apoptosis in human WM266.4 cells assessed as late apoptotic cells at 25 uM after 2 hrs by Annexin V-FITC/propidium iodide staining based flow cytometry (reference value: 1.41%)", "type": "functional"}, "Mus musculus [16]": {"system": "Mus musculus", "assay": "Toxicity in athymic Foxn1 nu mouse assessed as effect on body weight at 10 mg/kg, ip administered once daily for 3 days followed by resting period of 4 days repeated for 4 weeks", "type": "organism-based", "details": "in vivo"}, "WM 266-4 [17]": {"system": "WM 266-4", "assay": "Induction of apoptosis in human WM266.4 cells assessed as necrotic cells at 10 uM after 2 hrs by Annexin V-FITC/propidium iodide staining based flow cytometry (reference value: 1.22%)", "type": "functional"}, "WM 266-4 [18]": {"system": "WM 266-4", "assay": "Cell cycle arrest in human WM266.4 cells assessed as accumulation at S phase at 10 uM after 2 hrs by propidium iodide staining based flow cytometry (reference value: 27%)", "type": "functional"}, "[19]": {"assay": "Drug metabolism in human WM266.4 cells assessed as chlorambucil after 48 hrs by LC-MS analysis", "type": "ADME, cell-based", "details": "wm 266-4, 48 h"}, "WM 266-4 [20]": {"system": "WM 266-4", "assay": "as §2, with “at 10” for “at 5”, “for 3” for “for 7”, “of 4” for “of 2”, “21 relative to control” for “21”", "type": "functional", "details": "WM 266-4, ip, read-out: TGI"}, "[21]": {"assay": "Drug metabolism in human WM266.4 cells assessed as amonafide after 48 hrs by LC-MS analysis", "type": "ADME, cell-based", "details": "wm 266-4, 48 h"}, "WM 266-4 [22]": {"system": "WM 266-4", "assay": "Induction of apoptosis in human WM266.4 cells assessed as live cells at 25 uM after 8 hrs by Annexin V-FITC/propidium iodide staining based flow cytometry (reference value: 94.7%)", "type": "functional"}, "A 172": {"system": "A 172", "assay": "Growth inhibition of human A172 cells preincubated for 6 hrs followed compound washout measured after 24 hrs by XTT assay", "type": "functional"}, "WM 266-4 [23]": {"system": "WM 266-4", "assay": "Induction of apoptosis in human WM266.4 cells assessed as late apoptotic cells at 10 uM after 8 hrs by Annexin V-FITC/propidium iodide staining based flow cytometry (reference value: 1.41%)", "type": "functional"}, "WM 266-4 [24]": {"system": "WM 266-4", "assay": "Induction of apoptosis in human WM266.4 cells assessed as live cells at 10 uM after 2 hrs by Annexin V-FITC/propidium iodide staining based flow cytometry (reference value: 94.7%)", "type": "functional"}, "WM 266-4 [25]": {"system": "WM 266-4", "assay": "Induction of apoptosis in human WM266.4 cells assessed as early apoptotic cells at 25 uM after 24 hrs by Annexin V-FITC/propidium iodide staining based flow cytometry (reference value: 2.64%)", "type": "functional"}, "WM 266-4 [26]": {"system": "WM 266-4", "assay": "as §2, with “at 25” for “at 5”, “for 3” for “for 7”, “of 4” for “of 2”, “21 relative to control” for “21”", "type": "functional", "details": "WM 266-4, ip, read-out: TGI"}, "WM 266-4 [27]": {"system": "WM 266-4", "assay": "Induction of apoptosis in human WM266.4 cells assessed as live cells at 25 uM after 2 hrs by Annexin V-FITC/propidium iodide staining based flow cytometry (reference value: 94.7%)", "type": "functional"}, "WM 266-4 [28]": {"system": "WM 266-4", "assay": "Cell cycle arrest in human WM266.4 cells assessed as accumulation at S phase at 10 uM after 24 hrs by propidium iodide staining based flow cytometry (reference value: 27%)", "type": "functional"}, "WM 266-4 [29]": {"system": "WM 266-4", "assay": "Antitumor activity against human WM266.4 cells xenografted in athymic Foxn1 nu mouse assessed as mouse survival at 10 mg/kg, ip administered once daily for 3 days followed by resting period of 4 days repeated for 4 weeks starting from 5 days post tumor inoculation relative to control", "type": "functional", "details": "WM 266-4, ip"}, "WM 266-4 [30]": {"system": "WM 266-4", "assay": "Cell cycle arrest in human WM266.4 cells assessed as accumulation at G2 phase at 10 uM after 8 hrs by propidium iodide staining based flow cytometry (reference value: 11%)", "type": "functional"}, "[31]": {"biological_target": "DNA topoisomerase 2-alpha (Homo sapiens) (UniProt P11388)", "sequence (P11388 whole entry)": "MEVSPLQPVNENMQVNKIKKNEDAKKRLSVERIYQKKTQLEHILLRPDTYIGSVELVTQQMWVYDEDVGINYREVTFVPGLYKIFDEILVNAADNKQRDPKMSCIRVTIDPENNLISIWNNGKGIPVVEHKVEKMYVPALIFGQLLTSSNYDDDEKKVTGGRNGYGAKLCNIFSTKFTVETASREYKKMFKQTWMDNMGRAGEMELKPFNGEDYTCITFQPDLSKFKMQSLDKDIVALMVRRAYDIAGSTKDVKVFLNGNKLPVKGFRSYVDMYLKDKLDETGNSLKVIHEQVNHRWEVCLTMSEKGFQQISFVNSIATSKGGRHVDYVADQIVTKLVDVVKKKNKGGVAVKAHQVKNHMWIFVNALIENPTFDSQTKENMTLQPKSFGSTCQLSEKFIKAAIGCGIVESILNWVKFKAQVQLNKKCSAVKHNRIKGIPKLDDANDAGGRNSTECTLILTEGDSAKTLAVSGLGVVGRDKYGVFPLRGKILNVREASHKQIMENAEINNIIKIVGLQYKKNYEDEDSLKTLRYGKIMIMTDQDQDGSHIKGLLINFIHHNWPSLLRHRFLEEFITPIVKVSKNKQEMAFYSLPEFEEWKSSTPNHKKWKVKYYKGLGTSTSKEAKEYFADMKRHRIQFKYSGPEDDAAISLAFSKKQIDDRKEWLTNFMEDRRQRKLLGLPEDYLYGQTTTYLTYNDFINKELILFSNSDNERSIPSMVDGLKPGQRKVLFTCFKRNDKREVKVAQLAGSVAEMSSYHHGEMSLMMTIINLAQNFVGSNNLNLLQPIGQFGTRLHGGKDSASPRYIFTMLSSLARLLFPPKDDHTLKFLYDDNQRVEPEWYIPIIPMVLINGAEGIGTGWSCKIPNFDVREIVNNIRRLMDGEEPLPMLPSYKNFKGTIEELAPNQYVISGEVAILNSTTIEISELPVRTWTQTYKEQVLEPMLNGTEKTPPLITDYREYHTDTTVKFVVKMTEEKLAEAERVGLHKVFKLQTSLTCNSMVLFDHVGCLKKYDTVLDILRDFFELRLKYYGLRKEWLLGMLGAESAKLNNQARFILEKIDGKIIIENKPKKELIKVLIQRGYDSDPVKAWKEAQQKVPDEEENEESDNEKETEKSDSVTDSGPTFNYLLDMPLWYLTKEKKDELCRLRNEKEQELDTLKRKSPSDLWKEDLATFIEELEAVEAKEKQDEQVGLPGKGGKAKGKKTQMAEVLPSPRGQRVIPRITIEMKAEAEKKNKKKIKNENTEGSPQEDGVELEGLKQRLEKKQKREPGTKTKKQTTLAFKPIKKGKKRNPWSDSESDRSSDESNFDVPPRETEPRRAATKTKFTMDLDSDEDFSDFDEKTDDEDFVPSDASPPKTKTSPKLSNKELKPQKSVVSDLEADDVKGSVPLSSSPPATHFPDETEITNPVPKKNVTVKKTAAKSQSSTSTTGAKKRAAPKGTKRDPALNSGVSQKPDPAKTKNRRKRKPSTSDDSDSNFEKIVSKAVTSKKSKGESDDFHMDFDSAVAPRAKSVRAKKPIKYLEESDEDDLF", "assay": "Inhibition of human topoisomerase-2alpha assessed as reduction in enzyme-mediated decatenation at 25 uM using kinetoplast DNA as substrate after 25 mins by ethidium bromide staining based agarose gel electrophoresis method"}, "WM 266-4 [32]": {"system": "WM 266-4", "assay": "Induction of necrosis in human WM266.4 cells at 25 uM after 2 to 6 hrs by Annexin V-FITC/propidium iodide staining based fluorescence microscopic method", "type": "functional, cell-based"}}, "note": "Active and inactive are the calls of the source. The rule behind the calls is not given here."}
{"smiles": "CN(C)CCN1C(=O)c2cccc3cc(NC(=O)CCCc4ccc(N(CCCl)CCCl)cc4)cc(c23)C1=O.O=C(O)C(F)(F)F", "values": [{"measurement": "TGI", "setting": "WM 266-4 [1]", "value": "Active"}, {"measurement": "GI50", "setting": "MDA-MB-231", "value": 3.1, "unit": "µM"}, {"measurement": "Activity", "setting": "WM 266-4 [2]", "value": 46, "unit": "%"}, {"measurement": "Activity", "setting": "WM 266-4 [3]", "value": 24, "unit": "%"}, {"measurement": "Activity", "setting": "WM 266-4 [4]", "value": 6.79, "unit": "%"}, {"measurement": "Activity", "setting": "Mus musculus [5]", "value": "Non-Toxic"}, {"measurement": "Activity", "setting": "WM 266-4 [6]", "value": 24, "unit": "%"}, {"measurement": "growth inhibition (GI)", "setting": "WM 266-4 [7]", "value": "Active"}, {"measurement": "Activity", "setting": "WM 266-4 [8]", "value": 27.9, "unit": "%"}, {"measurement": "TGI", "setting": "WM 266-4 [9]", "value": "inactive"}, {"measurement": "Activity", "setting": "Mus musculus [10]", "value": "Non-Toxic"}, {"measurement": "Activity", "setting": "WM 266-4 [11]", "value": "Active"}, {"measurement": "inhibition in vivo at 10 mg/kg", "setting": "WM 266-4 [12]", "value": 40, "unit": "%"}, {"measurement": "GI50", "setting": "PC-3", "value": 7.1, "unit": "µM"}, {"measurement": "Activity", "setting": "WM 266-4 [13]", "value": 5.05, "unit": "%"}, {"measurement": "Activity", "setting": "WM 266-4 [14]", "value": 5.46, "unit": "%"}, {"measurement": "Activity", "setting": "WM 266-4 [15]", "value": 3.94, "unit": "%"}, {"measurement": "Activity", "setting": "Mus musculus [16]", "value": "Non-Toxic"}, {"measurement": "Activity", "setting": "WM 266-4 [17]", "value": 6.58, "unit": "%"}, {"measurement": "Activity", "setting": "WM 266-4 [18]", "value": 45, "unit": "%"}, {"measurement": "Drug metabolism", "setting": "[19]", "value": "Metabolite_Notdetected"}, {"measurement": "inhibition in vivo at 10 mg/kg", "setting": "WM 266-4 [20]", "value": 40, "unit": "%"}, {"measurement": "Drug metabolism", "setting": "[21]", "value": "Metabolite_Notdetected"}, {"measurement": "Activity", "setting": "WM 266-4 [22]", "value": 61.1, "unit": "%"}, {"measurement": "GI50", "setting": "A 172", "value": 7.5, "unit": "µM"}, {"measurement": "Activity", "setting": "WM 266-4 [23]", "value": 1.59, "unit": "%"}, {"measurement": "Activity", "setting": "WM 266-4 [24]", "value": 86.9, "unit": "%"}, {"measurement": "Activity", "setting": "WM 266-4 [25]", "value": 18.8, "unit": "%"}, {"measurement": "inhibition in vivo at 25 mg/kg", "setting": "WM 266-4 [26]", "value": 46, "unit": "%"}, {"measurement": "Activity", "setting": "WM 266-4 [27]", "value": 72.9, "unit": "%"}, {"measurement": "Activity", "setting": "WM 266-4 [28]", "value": 38, "unit": "%"}, {"measurement": "survival at 10 mg/kg", "setting": "WM 266-4 [29]", "value": 60, "unit": "%"}, {"measurement": "Activity", "setting": "WM 266-4 [30]", "value": 17, "unit": "%"}, {"measurement": "inhibition", "setting": "[31]", "value": "Active"}, {"measurement": "Activity", "setting": "WM 266-4 [32]", "value": "Active"}]}
